Consider two compounds from patent US6495525B1, “VLA-4 inhibitor: oMePUPA-V” (Biogen, Inc., priority 1998, dated 2002).

Structures are written as SMILES.

In one series the target is VLA-4 (Homo sapiens, UniProt P05556+P13612). The series can be described thus: CS1 Cell Adhesion Assay, Jurkat cells to CS1/BSA conjugate. In kind it is cell-based. Details: endogenous in cells; host or cells: Jurkat (human T cell line). To be noted: in the presence of Mn+2. How it is done: The peptide NH2-cysteine-tyrosine-CS-1 was synthesized and coupled to BSA-SMCC (SMCC is a heterobifunctional crosslinker which reacts with free amino groups on BSA and the sole cysteine of the synthetic peptide) at a CS1/BSA ratio of 10:1. Wells were coated overnight with 100 μL of conjugate diluted to a final concentration of 1 ug/ml. The next day the wells were blocked with BSA in PBS for one hour and then washed three times.
VLA-4, sequence (P13612 34-1032): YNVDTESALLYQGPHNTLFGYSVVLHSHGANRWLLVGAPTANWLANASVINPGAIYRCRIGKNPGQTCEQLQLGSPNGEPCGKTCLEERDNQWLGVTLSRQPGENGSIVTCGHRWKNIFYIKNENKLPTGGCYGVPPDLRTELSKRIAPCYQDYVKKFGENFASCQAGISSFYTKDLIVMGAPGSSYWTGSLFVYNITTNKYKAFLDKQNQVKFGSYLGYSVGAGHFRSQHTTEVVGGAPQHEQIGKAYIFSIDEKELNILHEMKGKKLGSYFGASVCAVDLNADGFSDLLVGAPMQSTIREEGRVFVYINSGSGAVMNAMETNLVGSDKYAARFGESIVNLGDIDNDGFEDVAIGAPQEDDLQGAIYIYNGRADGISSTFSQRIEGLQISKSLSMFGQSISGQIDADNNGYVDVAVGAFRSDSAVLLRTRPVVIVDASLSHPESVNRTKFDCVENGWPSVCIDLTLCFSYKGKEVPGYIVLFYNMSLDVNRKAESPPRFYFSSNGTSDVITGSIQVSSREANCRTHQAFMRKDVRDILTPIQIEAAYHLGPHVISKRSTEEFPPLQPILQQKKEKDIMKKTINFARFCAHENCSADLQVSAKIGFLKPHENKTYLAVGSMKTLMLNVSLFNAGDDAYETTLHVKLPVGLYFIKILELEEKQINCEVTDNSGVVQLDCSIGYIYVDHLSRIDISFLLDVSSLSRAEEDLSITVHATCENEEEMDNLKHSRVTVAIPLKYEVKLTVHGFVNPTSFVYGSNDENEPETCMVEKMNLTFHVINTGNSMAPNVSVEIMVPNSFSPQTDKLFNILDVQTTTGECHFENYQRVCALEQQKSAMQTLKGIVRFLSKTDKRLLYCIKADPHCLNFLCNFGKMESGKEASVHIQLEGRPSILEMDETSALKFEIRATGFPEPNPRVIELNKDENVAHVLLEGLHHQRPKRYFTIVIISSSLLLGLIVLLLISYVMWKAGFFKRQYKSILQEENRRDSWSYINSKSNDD
VLA-4, sequence (P05556 21-798): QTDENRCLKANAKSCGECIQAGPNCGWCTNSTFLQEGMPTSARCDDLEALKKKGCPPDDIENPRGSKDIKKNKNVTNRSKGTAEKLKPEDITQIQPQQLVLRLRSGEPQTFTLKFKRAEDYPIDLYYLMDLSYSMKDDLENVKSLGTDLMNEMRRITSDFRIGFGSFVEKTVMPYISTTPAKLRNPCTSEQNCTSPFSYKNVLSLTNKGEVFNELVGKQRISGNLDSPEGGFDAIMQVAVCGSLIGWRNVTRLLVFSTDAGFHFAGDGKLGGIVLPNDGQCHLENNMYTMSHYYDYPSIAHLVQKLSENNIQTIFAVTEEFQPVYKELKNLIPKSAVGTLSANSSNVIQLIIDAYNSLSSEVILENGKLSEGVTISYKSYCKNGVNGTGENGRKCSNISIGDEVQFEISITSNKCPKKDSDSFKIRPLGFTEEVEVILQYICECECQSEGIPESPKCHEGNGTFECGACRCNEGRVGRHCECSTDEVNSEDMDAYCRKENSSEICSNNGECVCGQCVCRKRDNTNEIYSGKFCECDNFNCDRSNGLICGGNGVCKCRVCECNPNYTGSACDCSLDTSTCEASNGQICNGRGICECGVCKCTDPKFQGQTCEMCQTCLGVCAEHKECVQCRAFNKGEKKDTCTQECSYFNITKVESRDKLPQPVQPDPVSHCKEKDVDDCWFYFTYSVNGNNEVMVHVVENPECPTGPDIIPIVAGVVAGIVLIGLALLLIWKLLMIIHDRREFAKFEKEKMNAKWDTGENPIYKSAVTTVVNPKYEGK
The human T cell line, Jurkat, was labeled with 2 μM BCECF-AM, a fluorescent dye (2′, 7′, bis-(2-carboxyethyl)-5 and -6) carboxy fluorescein acetoxymethyl ester (Molecular Probes Inc., Eugene, Oregon; catalog #B-1150) that is internalized and deesterified thus trapping the dye within live cells. Jurkat cells (1×10^5 cells/well) in buffer containing 1 mM Mn^+2 were added to the coated plates in the presence of three-fold serial dilutions of inhibitor. Each concentration was assayed in duplicate. After 30 minutes at room temperature, the plates were inverted and washed three times or until no cells were adherent to control wells coated with BSA alone. CS1-adherent cells were quantitated in a Cytofluor fluorescent platereader using an excitation wavelength of 485 nm and an emission wavelength of 530 nm.
Cells adhered to CS1/BSA in the absence of compound served as the 0% inhibition control whereas cells adhering to BSA alone served as the 100% inhibition control. IC50's were calculated using Deltagraph software, version 5.

Series [1] in a line: Bulk / drug substance stability (HPLC). In kind it is physicochemical. How it is done:
At four weeks, one or two degradation peaks became detectable at 40° C. and 50° C., but the level of each impurity peak was still less than 0.02%.

For the compound `O=C(O)CN(CCN(CC(=O)O)CC(=O)O)CC(=O)O` [EDTA, reference compound], the “blocking of Jurkat cell adhesion to CS1 (in words)” value on VLA-4 is “blocked completely”.

For the compound `Cc1ccccc1NC(=O)Nc1ccc(CC(=O)N2CCC[C@@H]2C(=O)NC(C)CC(=O)O)cc1` (stereo partly drawn) [oMePUPA-V], the “level of each impurity (degradation) peak” value in series [1] (four weeks, 40° C. and 50° C.) is “less than 0.02%”. For the same compound, the “degradation on storage (in words)” value in series [1] (two weeks, 40° C. closed vial, 50° C. closed vial, 25° C., RH 60%, 40° C., RH 75%) is “No degradation”.
